# Assay results published in patent publication US20210161837A1, “METHODS FOR TREATING CANCER WITH RORGAMMA INHIBITORS” (The Regents of the University of California, priority 2016, published 2021).
# Tests used:
# [1] = test system: key proliferation and survival proteins, including Myc; test: Immunoblotting of key proliferation and survival proteins; type: cell-based, human; details: 3 days
# Description: Data shown are mean percentage of apoptotic cells±s.d. […] Data shown are mean±s.d. Significance was calculated using Student's t-test. *p<0.05, **p<0.01.
# (§1) (a&b) C4-2B and 22Rv1 cell proliferation after the RORγ antagonist treatment. Cells were seeded in 6-well plates and counted after cells were treated with indicated concentrations of RORγ antagonists for 0, 2, 4 and 6 days by Coulter counter. […] (e) representative images of TUNEL positive cells treated with vehicle or the antagonist (5 μM) in 22Rv1 cells are shown. […] Three days later, cells were harvested for immunoblotting with indicated antibodies.
# Total RNA was isolated from cells in 6-well or 10-cm plates or from xenograft tumors, and the cDNA was prepared, amplified and measured in the presence of SYBR as described in Yang, P., et al., Molecular and cellular biology 32, 3121-3131 (2012). Briefly, the fluorescent values were collected and a melting curve analysis was performed. Fold difference was calculated as described previously Yang, P., et al. (see, id). The experiments were performed at least three times with data presented as mean values±s.d. Cell lysates were analyzed by immunoblotting with antibodies specifically recognizing RORγ, AR, AR-V7 and the indicated proteins.
# [2] = test system: LNCaP cells; test: Cell viability (CellTiter-GLO), 4 days; type: cell-based; details: Homo sapiens, read-out: inhibitory potency (growth inhibition)
# Description: as §1
# LNCaP, C4-2B, 22Rv, PC-3, and PC346C prostate cancer cells were cultured in RPMI1640, VCaP, HEK293T and human fibroblast IMR90 cells were in DMEM, LAPC-4 was in Iscove's MEM (all from Corning), and RWPE-1 and PZ-HPV-7 were in Keratinocyte Serum Free Medium (K-SFM) (Invitrogen) with the supplements. All the culture media except for RWPE-1 and PZ-HPV-7 were supplemented with 10% FBS (Hyclone) except indicated otherwise. […]
# For cell viability, cells were seeded in 96-well plates at 1500-2500 cells per well (optimum density for growth, depending on the specific cell line) in a total volume of 100 μl media. […] After 4 days of incubation, Cell-Titer GLO reagents (Promega) were added and luminescence was measured on GLOMAX microplate luminometer (Promega), according to the manufacturer's instructions. […] The estimated in vitro IC50 values were calculated using GraphPad Prism 6 software.
# [3] = test system: MCF-7-TamR; test: Growth and survival of tamoxifen-resistant breast cancer cells; type: cell-based, human
smiles,measurement,setting,value
"O=C(Cc1ccccc1[N+](=O)[O-])Nc1ccc(-c2ccc(C(O)(C(F)(F)F)C(F)(F)F)cc2F)cc1 [XY018, N-(2′-fluoro-4′-(1,1,1,3,3,3-hexafluoro-2-hydroxypropan-2-yl)-[1,1′-biphenyl]-4-yl)-2-(2-nitrophenyl)acetamide]","expression of key proliferation and survival proteins, including Myc",[1],strongly inhibited the expression
same,IC50,[2],2100 nM
same,growth inhibitory effect of tamoxifen in combination with XY018,"[3]; MCF-7-TamR, tamoxifen plus XY018",synergistic growth inhibitory effect
same,inhibition of growth and survival,"[3]; tamoxifen-resistant MCF-7-TamR, XY018 alone",potently inhibiting the growth and survival
